Test results taken from US20170224613A1, “HYDROGEL COMPOSITIONS, METHODS FOR PREPARING THE SAME AND USES THEREOF” (CHONGQING MJ MEDICAL DEVICES CO., LTD., priority 2014, published 2017).

Tested on: healthy volunteers
Test: Testing in healthy volunteers: warming sensation, cooling sensation, skin irritation on forearm
Type: in vivo, human
Conditions: at 11 wt % based on the total weight of the hydrogel composition
Experimental: In a pilot study to evaluate the hydrogel composition formulations, the different hydrogel prototypes (with a gauze on which the respective hydrogel composition was disposed) of Examples 2 (called gel B in Table 3) and 6 (called gel C in Table 3) and Comparative Example 1 (called gel A in Table 3) were tested on 8 healthy volunteers (M:F=5:3, ages 27-64), respectively. […] Three clinical parameters were considered including the cooling sensation, the warming sensation and irritation/erythema on the applied skin area. In this pilot study, each participant has applied the topical hydrogels (120 mm×100 mm×5 mm; 70 g) on to their forearm (one gel per forearm at a time) and scored their subjective warming and cooling sensations at 5, 10, 20, and 30 min after hydrogel application according to Table 2. The skin irritation reaction was also examined and scored by a researcher according to Table 2.

SMILES: COC(=O)c1ccccc1O [Methyl salicylate, methyl salicylate]
- irritation by methyl salicylate in hydrogel: showed irritation
